Experimental data reported in patent US20220167618A1, “PESTICIDALLY ACTIVE AZOLE-AMIDE COMPOUNDS” (SYNGENTA CROP PROTECTION AG, priority 2019, published 2022).

Tests used:
[1] = test system: Diabrotica balteata (Corn Root Worm); experiment: Example B1: Diabrotica balteata (corn root worm), sprayed maize sprouts; assay type: in vivo; conditions: 96 h, application rate 200 ppm, L2 larvae, 4 days after infestation, read-out: control in at least one of the two categories (mortality or growth inhibition)
Description: Example B1: Diabrotica balteata (Corn Root Worm)
Maize sprouts placed onto an agar layer in 24-well microtiter plates were treated with aqueous test solutions prepared from 10′000 ppm DMSO stock solutions by spraying. After drying, the plates were infested with L2 larvae (6 to 10 per well). The samples were assessed for mortality and growth inhibition in comparison to untreated samples 4 days after infestation.

[2] = test system: Chilo suppressalis (Striped Rice Stemborer); experiment: Example B4: Chilo suppressalis (striped rice stemborer), artificial diet; assay type: in vivo; conditions: 144 h, application rate 200 ppm, L2 larvae, 6 days after infestation, read-out: control in at least one of the three categories (mortality, anti-feedant or growth inhibition)
Description: Example B4: Chilo suppressalis (Striped Rice Stemborer)
24-well microtiter plates with artificial diet were treated with aqueous test solutions prepared from 10′000 ppm DMSO stock solutions by pipetting. After drying, the plates were infested with L2 larvae (6-8 per well). The samples were assessed for mortality, anti-feeding effect, and growth inhibition in comparison to untreated samples 6 days after infestation. Control of Chilo suppressalis by a test sample is given when at least one of the categories mortality, anti-feedant effect, and growth inhibition is higher than the untreated sample.

[3] = test system: Plutella xylostella (Diamond Back Moth); experiment: Example B5: Plutella xylostella (diamond back moth), artificial diet, 24-well; assay type: in vivo; conditions: 192 h, application rate 200 ppm, eggs, 8 days after infestation, read-out: control in at least one of the two categories (mortality or growth inhibition)
Description: Example B5: Plutella xylostella (Diamond Back Moth)
24-well microtiter plates with artificial diet were treated with aqueous test solutions prepared from 10′000 ppm DMSO stock solutions by pipetting. After drying, Plutella eggs were pipetted through a plastic stencil onto a gel blotting paper and the plate was closed with it. The samples were assessed for mortality and growth inhibition in comparison to untreated samples 8 days after infestation.

[4] = test system: Spodoptera littoralis (Egyptian Cotton Leaf Worm); experiment: Example B9: Spodoptera littoralis (Egyptian cotton leaf worm), sprayed cotton leaf discs; assay type: in vivo; conditions: foliar, 72 h, application rate 200 ppm, L1 larvae, 3 days after infestation, read-out: control in at least one of the three categories (mortality, anto-feedant or growth inhibition)
[5] = test system: Myzus persicae (Green Peach Aphid); experiment: Example B12: Myzus persicae (green peach aphid), 96-well sucrose solution; assay type: in vivo; conditions: 120 h, application rate 50 ppm, 5 days after infestation
From the text: Example B12: Myzus persicae (Green Peach Aphid)
Test compounds prepared from 10′000 ppm DMSO stock solutions were applied by a liquid handling robot into 96-well microtiter plates and mixed with a sucrose solution. Parafilm was stretched over the 96-well microtiter plate and a plastic stencil with 96 holes was placed onto the plate. Aphids were sieved into the wells directly onto the Parafilm. The infested plates were closed with a gel blotting card and a second plastic stencil and then turned upside down. The samples were assessed for mortality 5 days after infestation.

[6] = test system: Plutella xylostella (Diamondback Moth); experiment: Example B13: Plutella xylostella (diamondback moth), artificial diet, 96-well; assay type: in vivo; conditions: 216 h, application rate 500 ppm, eggs/L1 larvae, 9 days after infestation
Description: Example B13: Plutella xylostella (Diamondback Moth)
96-well microtiter plates containing artificial diet were treated with aqueous test solutions, prepared from 10′000 ppm DMSO stock solutions, by a liquid handling robot. After drying, eggs (˜30 per well) were infested onto a netted lid which was suspended above the diet. The eggs hatch and L1 larvae move down to the diet. The samples were assessed for mortality 9 days after infestation.

[7] = test system: Euschistus heros (Neotropical Brown Stink Bug); experiment: Example B2: Euschistus heros (neotropical brown stink bug), sprayed soybean leaves; assay type: in vivo; conditions: 120 h, application rate 200 ppm, N2 nymphs, 5 days after infestation, read-out: control in at least one of the two categories (mortality or growth inhibition)
Description: Example B2: Euschistus heros (Neotropical Brown Stink Bug)
Soybean leaves on agar in 24-well microtiter plates were sprayed with aqueous test solutions prepared from 10′000 ppm DMSO stock solutions. After drying the leaves were infested with N2 nymphs. The samples were assessed for mortality and growth inhibition in comparison to untreated samples 5 days after infestation.

SMILES | percent control (mortality or growth inhibition) at 200 ppm [1] [%] | percent control (mortality, anti-feedant or growth inhibition) at 200 ppm [2] [%] | percent control (mortality or growth inhibition) at 200 ppm [3] [%] | percent control (mortality, anti-feedant or growth inhibition) at 200 ppm [4] [%] | mortality at 50 ppm [5] [%] | mortality at 500 ppm [6] [%] | percent control (mortality or growth inhibition) at 200 ppm [7] [%] | melting point [°C]
CC(NC(=O)c1cc(C2CC2(F)F)cc(C(F)(F)F)c1)c1nc(Br)nn1-c1ccc(OC(F)F)cn1 (stereo not shown) [Compound P7, N-[1-[5-bromo-2-[5-(difluoromethoxy)-2-pyridyl]-1,2,4-triazol-3-yl]ethyl]-3-(2,2-difluorocyclopropyl)-5-(trifluoromethyl)benzamide] | ≥ 80 | ≥ 80 | ≥ 80 | ≥ 80 | ≥ 80 | ≥ 80 | – | –
CC(NC(=O)c1cc(C2CC2(F)F)cc(C(F)(F)F)c1)c1nc(Br)nn1-c1ncc(OCC(F)F)cn1 (stereo not shown) [Compound P8, N-[1-[5-bromo-2-[5-(2,2-difluoroethoxy)pyrimidin-2-yl]-1,2,4-triazol-3-yl]ethyl]-3-(2,2-difluorocyclopropyl)-5-(trifluoromethyl)benzamide] | ≥ 80 | ≥ 80 | ≥ 80 | ≥ 80 | – | ≥ 80 | – | –
CC(NC(=O)c1cc(C2CC2(F)F)cc(C(F)(F)F)c1)c1nc(Br)nn1-c1ncc(OCC(F)(F)F)cn1 (stereo not shown) [Compound P11, N-[1-[5-bromo-2-[5-(2,2,2-trifluoroethoxy)pyrimidin-2-yl]-1,2,4-triazol-3-yl]ethyl]-3-(2,2-difluorocyclopropyl)-5-(trifluoromethyl)benzamide] | ≥ 80 | ≥ 80 | ≥ 80 | ≥ 80 | – | ≥ 80 | ≥ 80 | –
CC(NC(=O)c1cc(C2CC2(F)F)cc(C(F)(F)F)c1)c1nc(Br)nn1-c1ncc(OC(F)F)cn1 (stereo not shown) [Compound P12, N-[1-[5-bromo-2-[5-(difluoromethoxy)pyrimidin-2-yl]-1,2,4-triazol-3-yl]ethyl]-3-(2,2-difluorocyclopropyl)-5-(trifluoromethyl)benzamide] | ≥ 80 | ≥ 80 | ≥ 80 | ≥ 80 | – | ≥ 80 | – | –
CC(NC(=O)c1cc(C2CC2)nc(C(F)(F)F)c1)c1nc(Br)nn1-c1ncc(OCC(F)F)cn1 (stereo not shown) [Compound P14, N-[1-[5-bromo-2-[5-(2,2-difluoroethoxy)pyrimidin-2-yl]-1,2,4-triazol-3-yl]ethyl]-2-cyclopropyl-6-(trifluoromethyl)pyridine-4-carboxamide] | ≥ 80 | ≥ 80 | ≥ 80 | ≥ 80 | ≥ 80 | ≥ 80 | – | –
CC(NC(=O)c1cc(C2CC2)cc(C(F)(F)F)c1)c1nc(Br)nn1-c1ncc(OCC(F)F)cn1 (stereo not shown) [Compound P18, N-[1-[5-bromo-2-[5-(2,2-difluoroethoxy)pyrimidin-2-yl]-1,2,4-triazol-3-yl]ethyl]-3-cyclopropyl-5-(trifluoromethyl)benzamide] | ≥ 80 | ≥ 80 | ≥ 80 | ≥ 80 | – | ≥ 80 | – | –
CC(NC(=O)c1cc(C2CC2)cc(C(F)(F)F)c1)c1nc(Br)nn1-c1ncc(OC(F)F)cn1 (stereo not shown) [Compound P26, N-[1-[5-bromo-2-[5-(difluoromethoxy)pyrimidin-2-yl]-1,2,4-triazol-3-yl]ethyl]-3-cyclopropyl-5-(trifluoromethyl)benzamide] | ≥ 80 | ≥ 80 | ≥ 80 | ≥ 80 | ≥ 80 | ≥ 80 | – | –
CC(NC(=O)c1cc(C(F)(F)F)nc(C2(C#N)CC2)c1)c1nc(Br)nn1-c1ccc(OC(F)F)cn1 (stereo not shown) [Compound P30, N-[1-[5-bromo-2-[5-(difluoromethoxy)-2-pyridyl]-1,2,4-triazol-3-yl]ethyl]-2-(1-cyanocyclopropyl)-6-(trifluoromethyl)pyridine-4-carboxamide] | – | – | – | – | – | – | – | 152 to 154
CC(NC(=O)c1cc(C(F)(F)F)cc(C(F)(F)C2CC2)c1)c1nc(Br)nn1-c1ccc(OCC(F)F)cn1 (stereo not shown) [Compound P31, N-[1-[5-bromo-2-[5-(2,2-difluoroethoxy)-2-pyridyl]-1,2,4-triazol-3-yl]ethyl]-3-[cyclopropyl(difluoro)methyl]-5-(trifluoromethyl)benzamide] | – | – | – | – | – | – | – | 140 to 142
CC(NC(=O)c1cc(C(F)(F)F)nc(C2(C#N)CC2)c1)c1nc(Br)nn1-c1ccc(OCC(F)F)cn1 (stereo not shown) [Compound P32, N-[1-[5-bromo-2-[5-(2,2-difluoroethoxy)-2-pyridyl]-1,2,4-triazol-3-yl]ethyl]-2-(1-cyanocyclopropyl)-6-(trifluoromethyl)pyridine-4-carboxamide] | – | – | – | – | – | – | – | 147 to 149
CC(NC(=O)c1cc(C(F)(F)F)nc(C2(C#N)CC2)c1)c1nc(Br)nn1-c1ccc(OCC(F)(F)F)cn1 (stereo not shown) [Compound P33, N-[1-[5-bromo-2-[5-(2,2,2-trifluoroethoxy)-2-pyridyl]-1,2,4-triazol-3-yl]ethyl]-2-(1-cyanocyclopropyl)-6-(trifluoromethyl)pyridine-4-carboxamide] | – | – | – | – | – | – | – | 82 to 84
CC(NC(=O)c1cc(C(F)(F)F)nc(C2(C#N)CC2)c1)c1nc(Br)nn1-c1ncc(OCC(F)(F)F)cn1 (stereo not shown) [Compound P34, N-[1-[5-bromo-2-[5-(2,2,2-trifluoroethoxy)pyrimidin-2-yl]-1,2,4-triazol-3-yl]ethyl]-2-(1-cyanocyclopropyl)-6-(trifluoromethyl)pyridine-4-carboxamide] | – | – | – | – | – | – | – | 157 to 159
CC(NC(=O)c1cc(C(F)(F)F)cc(C(C)(C)C#N)c1)c1nc(Br)nn1-c1ccc(C#N)cn1 (stereo not shown) [Compound P36, N-[1-[5-bromo-2-(5-cyano-2-pyridyl)-1,2,4-triazol-3-yl]ethyl]-3-(1-cyano-1-methyl-ethyl)-5-(trifluoromethyl)benzamide] | ≥ 80 | ≥ 80 | ≥ 80 | ≥ 80 | – | ≥ 80 | ≥ 80 | –
CC(NC(=O)c1cc(C(F)(F)F)cc(C(C)(C)C#N)c1)c1nc(Br)nn1-c1ccc(OC(F)F)cn1 (stereo not shown) [Compound P37, N-[1-[5-bromo-2-[5-(difluoromethoxy)-2-pyridyl]-1,2,4-triazol-3-yl]ethyl]-3-(1-cyano-1-methyl-ethyl)-5-(trifluoromethyl)benzamide] | ≥ 80 | ≥ 80 | ≥ 80 | ≥ 80 | – | – | ≥ 80 | –
